These results are taken from PubChem BioAssay AID686920 (Broad Institute, 2013).

The test system of the experiment is A673 NR0B1-luciferase reporter, viability-normalised luminescence. The experiment can be described thus: suppressors of NR0B1-promoter luciferase reporter, dose response, EWS/Fli inhibitor project, luciferase luminescence, A673 cells, cherry-pick (AID 686920). (In general: Reporter assays use an easily measured gene product as a stand-in for the process of interest.)

For `CC(C)(C)c1ccc(/C=N/Nc2ccc(C(=O)O)cc2)cc1`, the AC35 is 2.22 µM.
As to `O=c1ccc2ccccc2c2ccccc12`, the AC35 was 8.15 µM.
Then `Cc1ccsc1/C=N/Nc1cccc(C(=O)O)c1`, with 0.832 µM; and `COc1ccccc1NC(=O)N1CCCCN2[C@H](CO)[C@H](c3ccc(-c4cccc(C)c4)cc3)[C@H]2C1`, with 8.3 µM; and `Cc1cccc(CN2C(=O)/C(=C\c3ccc(C(=O)NCCCN4CCN(C)CC4)cc3)Oc3ccccc32)c1`, with 11.6 µM.
As for `COc1ccc(OC)c(/C=C/c2ccnc3ccccc23)c1`, the AC35 is 2.4 µM.
Under `C[C@H](CO)N1C[C@H](C)[C@@H](CN(C)Cc2ccc(Oc3ccccc3)cc2)Oc2ccc(NS(=O)(=O)c3ccc(Cl)cc3)cc2CC1=O` stands 22.8 µM; under `Cc1ccc(C(=O)O/N=C(\N)c2ccccn2)cc1`, 9.92 µM.
Turning to `C[C@@H]1CN([C@H](C)CO)S(=O)(=O)c2ccc(C#CC(C)(C)O)cc2O[C@H]1CN(C)Cc1ccc(-c2ccccc2)cc1`, the AC35 was 4.22 µM.
Under `CCn1c(C)cc(C(=O)CN2C(=O)c3ccccc3S2(=O)=O)c1C` stands 1.23 µM; under `O=C(Nc1nc(-c2ccc(F)c(F)c2)cs1)c1ccc(OCC2CCCO2)cc1` (stereo unspecified), 30 µM.
Then `O=C(N/N=C/c1cccs1)c1n[nH]c2c1CCCC2`, with 4.03 µM; and `CCNC(=O)c1cc2c(c(-c3cccc(-c4cccc(OC)c4)c3)n1)[C@H](CCO)N([S@@](=O)C(C)(C)C)C2`, with 6.78 µM; and `O=C(O)c1cccc(N/N=C/c2cccs2)c1`, with 1.25 µM.
Under `OCC1OC(n2cnc3c(NCc4ccco4)ncnc32)C(O)C1O` (stereo unspecified) stands 2.81 µM; under `C[C@H](CO)N1C[C@H](C)[C@H](CN(C)Cc2ccc(C(=O)Nc3ccccc3N)cc2)Oc2ccc(NC(=O)C3CC3)cc2CC1=O`, 37.8 µM.
With `CCc1ccc(/C=C2\SC(=S)N(CCCC(=O)N3CCN(C)CC3)C2=O)cc1`, the AC35 is 21.3 µM.
As for `COc1ccc(S(=O)(=O)Nc2ccc3c(c2)C(=O)N([C@H](C)CO)C[C@@H](C)[C@@H](CN(C)CC2CCCCC2)OCCCC[C@H](C)O3)cc1`, the AC35 is 14.2 µM.
Then `N#C[C@@H]1[C@H](c2ccc(C#Cc3ccc(F)cc3)cc2)[C@@H](CO)N1C(=O)Nc1ccc(F)cc1`, with 5.54 µM; and `O=c1c2ccccc2nc(/C=C/c2cc(Br)ccc2O)n1CCCO`, with 23.9 µM.
Under `CC1=NN(c2ccccc2)C(=O)/C1=C\C=C\c1ccccc1` stands 6.98 µM; under `COc1ccc2oc(-c3ccccc3)cc(=O)c2c1`, 8.22 µM; under `CC(C)CC(NC(=O)c1cccs1)c1nnc(SCc2ccc(Cl)c(Cl)c2)n1C` (stereo unspecified), 39.5 µM.
Under `C[C@@H]1CN([C@H](C)CO)C(=O)c2cc(C#CCc3ccccc3)cnc2O[C@@H]1CN(C)Cc1cccc(F)c1` stands 46.1 µM.
As for `Nc1sc(-c2ccccc2)cc1-c1n[nH]c(=S)n1C1CCCCC1`, the AC35 was 3.67 µM.
Under `CCOc1ccc(-c2cc(CCCC(=O)N3CCN(c4ccc(OC)cc4)CC3)no2)cc1` stands 27.6 µM; under `O=C(c1nnsc1S(=O)c1ccc(Cl)cc1)N1CCOCC1` (stereo unspecified), 14.1 µM.
Then `O=C1C(=O)N(Cc2cccs2)c2ccccc21`, with 17 µM; and `Cc1cccc(NC(=O)CN2CCN(C(=O)CNC(=O)c3ccc(-c4ccccc4)cc3)CC2)c1C`, with 8.14 µM; and `COc1ccc(/C=C/C(=O)c2cc(F)ccc2OC(=O)c2ccccc2OC)cc1OC`, with 1.59 µM.
Under `COc1ccc(Cn2cc3c(-c4ccc(F)cc4)nnc-3c3cc(OC)c(OC)cc32)cc1` stands 14.1 µM.
As to `O=C1NC(=O)N(Cc2ccco2)C(=O)/C1=C/C=C/c1ccco1`, the AC35 was 6.32 µM.
On to `C[C@H](CO)N1C[C@H](C)[C@H](CN(C)Cc2ccc(C(F)(F)F)cc2)Oc2c(NS(=O)(=O)c3ccc(Cl)cc3)cccc2C1=O`, for which the AC35 was 43.4 µM.
Then `Cc1ccc(S(=O)(=O)N(C)C[C@@H]2Oc3cc(C#Cc4ccncc4)ccc3S(=O)(=O)N([C@@H](C)CO)C[C@H]2C)cc1`, with 9.88 µM; and `COc1ccc(C2=NNC(=Nc3cc(S(=O)(=O)N(C)C)ccc3C)SC2)c(OC)c1`, with 9.53 µM.
Regarding `Cc1ccc(/C=C2\SC(=S)N(CCCC(=O)NNC(=O)c3ccccc3O)C2=O)cc1`, the AC35 was 2.09 µM.
Then `COc1ccc(C2=Nn3c(nnc3-c3ccccc3OC)SC2)cc1OCC1CC1`, with 6.71 µM; and `Cc1cc(-c2nc3cc(F)ccc3s2)ccc1N`, with 8.89 µM.
Under `C=C1C(=O)O[C@@H]2[C@H]1[C@@H](OC(=O)/C(C)=C/C)C/C(C)=C\C(=O)/C=C(\C)[C@@H]2O` stands 8.09 µM.
Then `C[C@H](CO)N1C[C@H](C)[C@H](CN(C)Cc2ccc(C(=O)Nc3ccccc3N)cc2)Oc2ccc(N(C)C)cc2C1=O`, with 11.7 µM; and `C/C(=N\OCc1cccc(C(=O)O)c1)c1ccc(Cl)cc1`, with 0.832 µM; and `Cc1ccc2oc(/N=C(\N)NC(=O)C(C)(C)C)nc2c1`, with 0.18 µM.
Consider `Cc1ccc(S(=O)(=O)N(C)C[C@H]2Oc3c(cccc3N(C)C)C(=O)N([C@@H](C)CO)C[C@@H]2C)cc1`, for which the AC35 is 1.62 µM.
Under `Cc1ccc(N2C(=O)c3cccc4c(N)ccc(c34)C2=O)c2cccnc12` stands less than 0.03 µM; under `C(=NNc1ccc2ccccc2n1)c1ccccn1`, 1.55 µM.
Under `C[C@@H]1CCCCO[C@H](CN(C)Cc2ccc(C(=O)Nc3ccccc3N)cc2)[C@@H](C)CN([C@H](C)CO)C(=O)c2cc(NS(=O)(=O)c3ccc(Cl)cc3)ccc2O1` stands 5.04 µM; under `COc1ccc2oc(C(=O)NCCc3ccccc3)c(C)c2c1`, 6.25 µM; under `C[C@H](CO)N1C[C@H](C)[C@H](CN(C)Cc2ccccc2)Oc2ccc(NC(=O)CCCCCC(=O)Nc3ccccc3N)cc2CC1=O`, 5.93 µM.
Then `CC(C)(C)C(=O)Nc1ccc(N=Nc2ccccc2)cc1`, with 10.7 µM; and `COc1ccc(CN(C)c2ncnc3sccc23)c(OC)c1OC`, with 10.7 µM.
For the molecule `C(=Cc1nc2ccccc2o1)c1ccc2c(c1)OCO2`, the AC35 was 4.5 µM.
Consider `NC(Cc1ccc(C(F)(F)F)cc1)c1csc(NC(=O)Nc2ccccc2Cc2ccccc2)n1` (stereo unspecified), for which the AC35 was 17.6 µM.
Under `CCCCc1c(-c2ccccc2OC)ncn1Cc1ccc(C(C)(C)C)cc1` stands 10 µM; under `Nc1ccc(Oc2cccc(Oc3ccc(N)cc3)c2)cc1`, 1.15 µM; under `C[C@@H]1CN([C@@H](C)CO)C(=O)c2cccc(NS(=O)(=O)c3ccc(F)cc3)c2O[C@@H]1CN(C)Cc1ccc(C(=O)Nc2ccccc2N)cc1`, 6.97 µM.
Then `Cc1ccc(C(=O)CN2C(=O)c3ccccc3S2(=O)=O)cc1`, with 1.97 µM; and `COc1cccc(O)c1CN1CCC(C(=O)Nc2ccc(-c3cccc(C)c3)cc2)CC1`, with 29.1 µM.
Under `CCOc1ccc(N=C2C(=O)Nc3ccc(C)c(Br)c32)cc1` stands 26.4 µM; under `COc1cc(/C=C/C(=O)CC(=O)/C=C/c2ccc(O)c(OC)c2)ccc1O`, 7.91 µM; under `COc1ccc(NC(=O)N(C)[C@H]2C[C@H]3c4[nH]c5ccccc5c4CCN3C(=O)[C@H]2CO)cc1`, 12 µM.
Consider `COC(=O)c1cccc(NC(=O)NC(=O)c2ccccc2Cl)c1`, for which the AC35 is 0.215 µM.
Regarding `COc1cccc(CN2CCC2(C)C(=O)Nc2cccc3cccnc23)c1F` (stereo unspecified), the AC35 is 14.7 µM.
Under `Cc1c(Cc2ccc3c(c2)OCO3)sc(NC(=O)C(C)(C)C)c1C#N` stands 9.84 µM; under `Nc1nc2cc3c(cc2cc1C(=O)NCCc1c[nH]c2ccccc12)OCO3`, 4.31 µM; under `N#CC(C#N)=C1C=CC=CN1/C(=C\c1ccco1)C(=O)c1ccc(Cl)cc1`, 7.6 µM.
Then `CCCCCCCCNC(C)C(O)c1ccc(SC(C)C)cc1` (stereo unspecified), with 9.79 µM; and `COc1ccc(CC(N)c2csc(NC(=O)Nc3cccc(C(F)(F)F)c3)n2)cc1` (stereo unspecified), with 9.72 µM; and `C[C@H](CO)N1C[C@H](C)[C@H](CN(C)Cc2ccc(C(=O)Nc3ccccc3N)cc2)Oc2c(cccc2N(C)C)C1=O`, with 12.9 µM.
Then `COc1ccc2nc(-c3ccc(F)cc3)sc2c1`, with 8.38 µM.
Regarding `C[C@@H]1CN([C@@H](C)CO)C(=O)c2cc(NS(=O)(=O)c3ccc(F)cc3)ccc2O[C@@H]1CN(C)Cc1ccc(C(=O)Nc2ccccc2N)cc1`, the AC35 is 9.48 µM.
On to `O=C(Nc1cccc(S(=O)(=O)N2CCCC2)c1)c1ccc(Cl)nc1`, for which the AC35 was 8.45 µM.
As to `CC(=NNc1cc(C)c2ccccc2n1)c1ccccn1`, the AC35 is 8.23 µM.
Then `O=C1Nc2ccccc2C1=Nc1ccc(Br)cc1`, with 15.6 µM; and `CN(C[C@H]1N[C@@H](CO)[C@@H]1c1ccc(C2=CCCC2)cc1)C(=O)c1ccc(F)cc1`, with 5.59 µM.
Under `N#C[C@H]1[C@H](c2ccc(C#Cc3ccccc3F)cc2)[C@@H](CO)N1C(=O)C1CCCCC1` stands 19.5 µM.
Then `CCOc1cc2[nH]c(=S)n(Cc3ccc(C(=O)NCCN(CC)CC)cc3)c(=O)c2cc1OCC`, with 31.1 µM; and `C=CC[n+]1c(-c2ccc(C)cc2)csc1Nc1ccc(NC(C)=O)cc1`, with 15.6 µM; and `CN(C)c1ncnc2c1ccn2C1OC(CO)C(O)C1O` (stereo unspecified), with 3.44 µM.
As to `C[C@H](CO)N1C[C@H](C)[C@H](CN(C)Cc2ccc(Oc3ccccc3)cc2)Oc2ccc(NC(=O)CCCCCC(=O)Nc3ccccc3N)cc2CC1=O`, the AC35 is 4.15 µM.
Then `COc1cc(OC)cc(-c2cc3nc(C)c(CCC(=O)O)c(C)n3n2)c1`, with 0.243 µM; and `O=C(C1CC1)N1C[C@@H]2N[C@H](C1)C2c1ccc(/C=C/c2ccccc2)cc1` (stereo partly specified), with 26.1 µM; and `C[C@H]1CN([C@@H](C)CO)C(=O)c2cccc(NC(=O)c3ccc(-c4nccs4)cc3)c2O[C@@H]1CN(C)Cc1ccc(C(=O)Nc2ccccc2N)cc1`, with 14.1 µM.
Then `C[C@@H]1CN([C@@H](C)CO)C(=O)c2cc(NS(=O)(=O)c3ccccc3)ccc2O[C@@H]1CN(C)Cc1ccc(C(=O)Nc2ccccc2N)cc1`, with 9.16 µM; and `Oc1cccc(-c2nnc(-c3cccc(O)c3)nn2)c1`, with 7.64 µM.
With `O=C(Nc1ccc(F)cc1)N1CCCCN2[C@@H](CO)[C@H](c3ccc(C4=CCCCC4)cc3)[C@@H]2C1`, the AC35 is 13.3 µM.
Then `C[C@@H]1CN([C@@H](C)CO)C(=O)c2cccc(NC(=O)Nc3cccc4ccccc34)c2O[C@@H]1CN(C)Cc1ccc(C(=O)Nc2ccccc2N)cc1`, with 10.2 µM.
